Results from patent US20260152777A1, “METHOD FOR PRODUCING EPIGALLOCATECHIN GALLATE MONOGLUCOSIDE” (GIVAUDAN SA, priority 2022, published 2026).

Legend:
[1] = test system: Lactobacillus acidophilus; settings: 1%, culture supernatant, NMR, vs untreated
Protocol: The supernatants of the cultures previously described in Example 10, both of the untreated strain culture and the culture of L. acidophilus treated with 1% EGCG MONOG were kept and frozen at −80° C. before analysis using high-field NMR. For each of these two conditions, three samples were analyzed to assess the tests reproducibility (n=3).
For each sample, 400 μl of supernatant were taken and 100 μl of D2O/TSP (3-(trimethylsilyl)propionic-2,2,3,3-d4 acid sodium salt, internal reference) were added at a concentration of 1 g/l. The samples were analyzed by high field ^1H NMR on a Bruker ASCEND 500 spectrometer operating at a proton frequency of 500 MHz using a 5 mm cryosonde probe. NMR spectra were calibrated to TSP-d4 at 0 ppm using Topspin software version 4.3.0 (Bruker Biospin, Germany). Quantification of metabolites was performed by utilizing the internal standard (TSP-d4) added at a known concentration. Compounds were quantified by the relative ratio of the intensities of their peak integrals and those of the internal standard.

[2] = test system: Lactobacillus acidophilus; assay: Growth promotion of Lactobacillus acidophilus (OD600); assay type: cell-based; settings: MRS broth 50% in PBS, 48 hours, anaerobic
Protocol: In order to further investigate the effect of the active of the present invention on bacteria, the growth of Lactobacillus acidophilus in MRS medium supplemented with different concentrations of EGCG MONOG was evaluated for 48 hours.
L. acidophilus (DSM 20079) was cultivated at 37° C. under anaerobic conditions on De Man, Rogosa Sharpe (MRS) agar. After bacterial amplification in culture medium, for each bacterial strain, a bacterial suspension was prepared using the assay medium (MRS broth 50% in PBS) and adjusted to an optical density at 600 nm (OD600 nm) of 0.2. The bacterial suspension was then transferred to 96-well plates, some of which contained the test compounds from 0.015% to 1%. The strain cultivated with powdered milk at 0.01% served as a positive control.
Bacterial cultures were incubated at 37° C. under agitation (˜280 rpm) and under anaerobic condition. OD600 nm were read in kinetic for 48 hours using a microplate spectrophotometer (EPOCH2, BioTek Instruments) to analyze the bacterial growth.
All experimental conditions were performed in triplicate.

melanogenesis pathway = settings: 0.01% (v/v), 24 h, NHEK-NHEM co-culture, normalized to B2M
Protocol: To evaluate the impact of preparation of the present invention on melanogenesis, a co-culture study with keratinocytes and melanocytes was conducted.
The cell culture was realized with primary cells isolated from biopsies. Cells were co-cultured with a ratio of 10 keratinocytes to 1 melanocyte. Both cell types were derived from a donor.
The product EGCG MONOG 0.01% was filtered and diluted in Keratinocyte Growth Medium 2 (supplied by Promocell).
Cells were seeded in 6-well plates in the presence of the Keratinocyte Growth Medium 2 for 24 h. After seeding, a treatment in the presence of EGCG MONOG 0.01% was applied for 24 h. Untreated wells were used as a basal reference in order to compare the impact of EGCG MONOG and gene expression after 24 h of incubation.
After treatment, the RNA from the cells were extracted using TRIzol™ (available from Sigma) and reverse-transcribed into cDNA. The cDNA was mixed with different primers of interest representative of the melanogenesis pathway (PrimePCR custom plate, pigmentation, Biorad). The expression of the mRNA was measured by semi-quantitative PCR on a Bio-Rad CFX96Real Time PCR System (available from BioRAD). The expression level of the mRNA was calculated and normalized with reference gene (B2M).
The values were reported relative to the untreated control to express an activating or inhibitory effect.

[3] = test system: female volunteers with a dark skin type (phototype IV or more) and dull skin; assay: Clinical evaluation on African skin: skin color by Chromameter L* parameter; assay type: in vivo, human; settings: cream 0.4%, full face twice daily; for increase of L* on uneven skin tone area: dark skin type
Protocol: The clinical study was carried out on 85 female volunteers aged from 19 to 47 years, which were divided in three groups: active, placebo and aglycone. The study was performed in South Africa on female volunteers with a dark skin type (phototype IV or more) and dull skin. All participants provided signed informed consent at the beginning of the study. The study was conducted according to the guidelines of the Declaration of Helsinki. […] Skin color evolution was measured after 14, 28 and 56 days using L* parameter measurement by Chromameter®.
The skin color was evaluated by means of a Chromameter CR400, which measures skin color, and the parameter L* (lightness) was recorded. The greater the value, the lighter the skin color. Depending on the test type, at least three or at least 15 readings were taken at each test sub-site for each time interval to serve as the specific pigmentation sport color measurement component of the study. Skin color was analyzed at D0, D14, D28 and D56.
For all studies in vivo, a Shapiro Wilk test was used to verify whether the raw data followed the Gaussian Law. In case of Normally-distributed data, the mean values were compared using either an unpaired or paired t student test. In case of non-Normally-distributed data, a Wilcoxon (paired) and Kruskal-Wallis test followed by a Mann-Whitney U (unpaired) test were used for paired data and unpaired data, respectively.

Q: Which results are given for `O=C(O[C@@H]1Cc2c(O)cc(O)cc2O[C@@H]1c1cc(O)c(O[C@H]2O[C@H](CO)[C@@H](O)[C@H](O)[C@H]2O)c(O)c1)c1cc(O)c(O)c(O)c1` [epigallocatechin gallate 4′-O-α-monoglucoside]?
A: decrease of consumption of sugars by L. acidophilus [1]: 17%; increase of Trigonelline released by L. acidophilus [1]: up to 65%; increase of polysorbate consumption by L. acidophilus [1]: 51%; increase of growth of Lactobacillus acidophilus vs culture without EGCG MONOG ([2]; 0.13%): 6%; increase of growth of Lactobacillus acidophilus vs culture without EGCG MONOG ([2]; 0.4%): 9%; increase of growth of Lactobacillus acidophilus vs culture without EGCG MONOG ([2]; 1%): 27%; AP3B1 mRNA expression vs untreated co-culture (melanogenesis pathway): −59%; DTNBP1 mRNA expression vs untreated co-culture (melanogenesis pathway): −59%; EDNRB mRNA expression vs untreated co-culture (melanogenesis pathway): −68%; F2RL1 mRNA expression vs untreated co-culture (melanogenesis pathway): −49%; KIT mRNA expression vs untreated co-culture (melanogenesis pathway): −93%; LYST mRNA expression vs untreated co-culture (melanogenesis pathway): −48%; MC1R mRNA expression vs untreated co-culture (melanogenesis pathway): −96%; MITF mRNA expression vs untreated co-culture (melanogenesis pathway): −108%; PMEL mRNA expression vs untreated co-culture (melanogenesis pathway): −212%; SOX10 mRNA expression vs untreated co-culture (melanogenesis pathway): −60%; TYR mRNA expression vs untreated co-culture (melanogenesis pathway): −58%; increase of L*, global skin color, 15 measurements on hemi face ([3]; dark skin type, 14, 28 and 56 days): up to +6.8%; increase of L* on uneven skin tone area ([3]; after 14 days): +1.3%; increase of L* on uneven skin tone area ([3]; after 28 days): +4.7%; increase of L* on uneven skin tone area ([3]; after 56 days): +6.3%
